According to PubChem BioAssay (NCI):
“And” between values parts separate entries of the source, which are not always exact repeats. Identical values can stand only once.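 Compound exposure: 48 hours, 5 concentrations, 96-well plates. Abbreviation: GI50, concentration required for 50% inhibition of growth. At the TGI there is no net growth.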

Tests used:
Experiment in all cases: NCI tumour cell line growth inhibition, 48 h
[1] = test system: TK-10 renal
[2] = test system: NCI-H23 lung
[3] = test system: MALME-3M melanoma
[4] = test system: CCRF-CEM leukemia
[5] = test system: SW-620 colon
[6] = test system: A498 renal
[7] = test system: UACC-257 melanoma
[8] = test system: OVCAR-5 ovarian
[9] = test system: SNB-75 CNS
[10] = test system: SK-MEL-28 melanoma

Row | Compound | GI50 [1] | TGI [1] | GI50 [2] | TGI [2] | GI50 [3] | TGI [3] | GI50 [4] | TGI [4] | GI50 [5] | TGI [5] | GI50 [6] | TGI [6] | GI50 [7] | TGI [7] | GI50 [8] | TGI [8] | GI50 [9] | TGI [9] | GI50 [10] | TGI [10]
1 | CC/C=C\CCC/C=C1/C(=O)C=C[C@@H]1C/C=C\CCCC(=O)OC | 7.61 µM | 20.1 µM | 3230 nM | 10.8 µM | 4.76 µM | 16.6 µM | 2570 nM | 8.32 µM | 4.16 µM | 18.7 µM | 19.8 µM | 34.7 µM | 7550 nM | 20.5 µM | 5280 nM | 17.6 µM | 13700 nM | 28.5 µM | 3.25 µM | 10.3 µM
2 | O=C(Nc1ccc(Cl)c(Cl)c1)Nc1ccc(Cl)c(Cl)c1 | 3.3 µM and 2.59 µM | 13.3 µM and 5.86 µM | 2630 nM and 2400 nM | 10.2 µM and 11.4 µM | 2.22 µM and 2.44 µM | 5.95 µM and 6.58 µM | 3360 nM and 1970 nM | 14.1 µM and 6.47 µM | 3.36 µM and 3.12 µM | 14.4 µM and 11.7 µM | – | 2.79 µM and 5.18 µM | 2390 nM and 2050 nM | 6.96 µM and 5.85 µM | 2740 nM and 4270 nM | 7.53 µM and 17.6 µM | 2150 nM and 2850 nM | 7.81 µM and 18.8 µM | 3.24 µM and 4.13 µM | 14.2 µM and > 100 µM
3 | CCCCCN(CCCCC)CC(O)c1cc(C)c2ccc3cc(C(C)C)ccc3c2c1 (stereo not given) | 1.89 µM | 3.51 µM | 1770 nM | 3.4 µM | 1.92 µM | 3.85 µM | 2190 nM | 5.53 µM | 1.81 µM | 3.61 µM | 1.56 µM | 2.94 µM | 1990 nM | 3.97 µM | 1800 nM | 3.66 µM | 1310 nM | 2.65 µM | 1.76 µM | 3.27 µM
4 | CNS(=O)(=O)NNS(=O)(=O)c1ccc2ccccc2c1 | – | > 100 µM | – | > 100 µM | – | > 100 µM | – | > 100 µM | – | > 100 µM | – | > 100 µM | – | > 100 µM | – | > 100 µM | – | > 100 µM | – | > 100 µM
5 | CO[C@H](C(=O)[C@@H](O)[C@@H](C)O)[C@@H]1Cc2cc3cc(O[C@H]4C[C@@H](O[C@H]5C[C@@H](O)[C@H](O)C(C)O5)[C@H](O)C(C)O4)c(C)c(O)c3c(O)c2C(=O)[C@H]1O[C@H]1C[C@@H](O[C@H]2C[C@@H](O[C@H]3C[C@](C)(O)C(=O)C(C)O3)[C@@H](O)C(C)O2)[C@H](O)C(C)O1 (stereo not given in full) | 0.21 µM | > 11.8 µM | 77.1 nM | 1.07 µM | 0.0388 µM | 0.28 µM | 211 nM | > 33.2 µM | 0.075 µM | > 33.2 µM | 0.0185 µM | 0.147 µM | 99.5 nM | 2.27 µM | 115 nM | > 22.1 µM | 45 nM | 0.211 µM | 0.053 µM | 0.203 µM
6 | CCOC(=O)CN1C(=O)c2cccc3cc([N+](=O)[O-])cc(c23)C1=O | – | 30.7 µM | – | 4.52 µM | – | 5.23 µM | – | 1.5 µM | – | 2.99 µM | – | 30.6 µM | – | 7.73 µM | – | 28.9 µM | – | 22.2 µM | – | 7.39 µM
7 | Cc1ccc(N=Nc2ccc(N(CCC#N)CCC#N)cc2C)c(Br)c1 | – | 66.3 µM | – | > 100 µM | – | > 100 µM | – | > 100 µM | – | > 100 µM | – | > 100 µM | – | > 100 µM | – | > 100 µM | – | > 100 µM | – | > 100 µM
8 | C/C(CC(=O)CCC(=O)Nc1cccc(C(F)(F)F)c1)=N\NC(=O)NN | – | > 100 µM | – | > 100 µM | – | > 100 µM | – | > 100 µM | – | > 100 µM | – | > 100 µM | – | > 100 µM | – | > 100 µM | – | > 100 µM | – | > 100 µM
9 | Cc1ccc(C(=O)/C(=C/c2ccc([N+](=O)[O-])cc2)SCc2ccc(Cl)cc2)cc1 | 4.95 µM | 30.7 µM | 2730 nM | 20.7 µM | 4.34 µM | 19.2 µM | 283 nM | > 100 µM | 0.21 µM | 0.523 µM | 24 µM | > 100 µM | 9770 nM | 34.2 µM | 2500 nM | 9.12 µM | 20400 nM | > 100 µM | 3.36 µM | 14.7 µM
10 | O=CN/C=C/c1cc(O)ccc1O | – | 31.6 µM | – | 43.7 µM | – | 35.6 µM | – | 23.9 µM | – | 21.5 µM | – | > 100 µM | – | 27.8 µM | – | > 100 µM | – | 98.2 µM | – | > 78.5 µM
11 | CN(C)CC[N+]1=Nc2cccc3cccc(c23)N1 | – | > 100 µM | – | > 100 µM | – | > 100 µM | – | > 67.3 µM | – | > 58 µM | – | > 100 µM | – | > 100 µM | – | > 100 µM | – | > 100 µM | – | > 100 µM
12 | CCOC(=O)[C@]1(OC(C)=O)C[C@H](OC(C)=O)[C@@H](C(F)COP(=O)(OCc2ccccc2)OCc2ccccc2)O1 (stereo not given in full) | 18.8 µM and > 100 µM | 35.7 µM and > 100 µM | 48900 nM and > 100000 nM | > 100 µM | 13.9 µM and > 100 µM | 33.8 µM and > 100 µM | – | > 100 µM | 20.2 µM and > 100 µM | 42.8 µM and > 100 µM | 24.7 µM and > 100 µM | 52.8 µM and > 100 µM | – | > 100 µM | 32700 nM and > 100000 nM | 95 µM and > 100 µM | – | > 100 µM | – | > 100 µM
13 | CC1(c2ccc(F)cc2)C(C#N)C(=O)NC(=O)C1C#N (stereo not given) | – | > 100 µM | – | > 100 µM | – | > 100 µM | – | > 100 µM | – | > 100 µM | – | > 100 µM | – | > 100 µM | – | > 100 µM | – | > 100 µM | – | > 100 µM
14 | OCc1ccc(N2CCC2c2ccc(F)cc2)cc1Cl (stereo not given) | 0.225 µM | 1.61 µM | 22200 nM | > 80.1 µM | 29.4 µM | > 66.1 µM | 26000 nM | > 82.9 µM | 4.93 µM | > 100 µM | 0.0584 µM | 0.244 µM | 278 nM | 1.98 µM | 256 nM | 1.9 µM | 20600 nM | > 100 µM | 28.7 µM | > 100 µM
15 | COc1ccccc1C12OC(=O)C1(C)Oc1ccccc1C2=O (stereo not given) | – | > 100 µM | – | > 100 µM | – | > 100 µM | – | > 100 µM | – | > 100 µM | – | > 100 µM | – | > 100 µM | – | > 100 µM | – | > 100 µM | – | > 100 µM
